# According to PubChem BioAssay (NCI):
# “And” between values parts separate entries of the source, which are not always exact repeats. Identical values can stand only once.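 1) Cells in 96-well plates. 2) Compound, 48 h, 5 concentrations. 3) Linear interpolation between surrounding doses. 4) Unreached endpoint = highest concentration. GI50: concentration for 50% inhibition of growth. TGI is the concentration that stops growth completely.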
# What was measured:
# Test in all cases: inhibition of tumour cell growth, NCI panel, 48 h
# NCI-H460 lung = test system: NCI-H460 lung
# LOX IMVI melanoma = test system: LOX IMVI melanoma
# UACC-257 melanoma = test system: UACC-257 melanoma
# IGROV1 ovarian = test system: IGROV1 ovarian
# T-47D breast = test system: T-47D breast
# NCI-H226 lung = test system: NCI-H226 lung
# OVCAR-5 ovarian = test system: OVCAR-5 ovarian
# SK-OV-3 ovarian = test system: SK-OV-3 ovarian
# MOLT-4 leukemia = test system: MOLT-4 leukemia
# NCI/ADR-RES ovarian = test system: NCI/ADR-RES ovarian
SMILES,GI50 (NCI-H460 lung),TGI (NCI-H460 lung),GI50 (LOX IMVI melanoma),TGI (LOX IMVI melanoma),GI50 (UACC-257 melanoma),TGI (UACC-257 melanoma),GI50 (IGROV1 ovarian),TGI (IGROV1 ovarian),GI50 (T-47D breast),TGI (T-47D breast),GI50 (NCI-H226 lung),TGI (NCI-H226 lung),GI50 (OVCAR-5 ovarian),TGI (OVCAR-5 ovarian),GI50 (SK-OV-3 ovarian),TGI (SK-OV-3 ovarian),GI50 (MOLT-4 leukemia),TGI (MOLT-4 leukemia),GI50 (NCI/ADR-RES ovarian),TGI (NCI/ADR-RES ovarian)
CN(C)c1ccc2c(c1)OC(N)=C(C#N)C2c1ccc2c(c1)CCCN2C (configuration not stated),1.92 µM,24.9 µM,1.97 µM,19.2 µM,10.5 µM,45.1 µM,4.03 µM,> 100 µM,11.7 µM,51.6 µM,5.44 µM,71 µM,59 µM,> 100 µM,2.52 µM,25.8 µM,3.38 µM,24.5 µM,1.12 µM,9.08 µM
CCOC(=O)C1=C(C)N(Cc2ccc(Cl)cc2Cl)[C@]2(C#N)C(O)=C(Cl)C(Cl)=C(O)[C@]12C#N,> 100 µM,> 100 µM,17.5 µM,35 µM,> 100 µM,> 100 µM,> 100 µM,> 100 µM,31.9 µM,78.4 µM,> 100 µM,> 100 µM,2.7 µM,31.3 µM,> 100 µM,> 100 µM,27.9 µM,61.6 µM,0.19 µM,15.6 µM
CCOC(=O)c1cc2cc(OCc3ccccc3)ccc2[nH]1,> 100 µM,> 100 µM,> 100 µM,> 100 µM,> 100 µM,> 100 µM,> 100 µM,> 100 µM,> 100 µM,> 100 µM,> 100 µM,> 100 µM,> 100 µM,> 100 µM,> 100 µM,> 100 µM,36.7 µM,> 100 µM,> 100 µM,> 100 µM
CCc1ccc(C2=NN(c3ccc(S(C)(=O)=O)cc3)C(=O)CC2)cc1,1.28 µM,13.1 µM,2.93 µM,> 100 µM,1.68 µM,55.3 µM,2.71 µM,> 74.3 µM,4.44 µM,98.1 µM,14.6 µM,> 100 µM,6.47 µM,> 100 µM,2.34 µM,12.4 µM,1.53 µM,17.5 µM,0.416 µM,2.6 µM
NCC(Cc1ccccc1)P(=O)(O)O (configuration not stated),,> 100 µM,,> 100 µM,,> 100 µM,,> 100 µM,,> 100 µM,,> 100 µM,,> 100 µM,,> 100 µM,,> 100 µM,,> 100 µM
CC1(C)N=C(N)N=C(N)N1c1ccc(OCCCCNC(=O)Nc2cccc(S(=O)(=O)F)c2)c(Cl)c1,0.377 µM,25.3 µM,0.491 µM,> 100 µM,3.73 µM,> 100 µM,0.581 µM,> 100 µM,15.8 µM,> 100 µM,7.95 µM,> 100 µM,2.26 µM,> 100 µM,> 100 µM,> 100 µM,4.08 µM,> 100 µM,> 100 µM,> 100 µM
CCN(CC)C(=O)CCCCCn1c2ccccc2c2c3c(c4c5ccccc5[nH]c4c21)C(=O)N(O)C3=O,3.62 µM,15.4 µM,1.13 µM,2.88 µM,10.7 µM,55.1 µM,2.41 µM,6.87 µM,4.12 µM,52.1 µM,14.1 µM,54.4 µM,31.1 µM,> 100 µM,22.2 µM,92.1 µM,2.05 µM,6.13 µM,3.4 µM,> 100 µM
CCN(CCNc1ccc(C)c2sc3cc(Cl)ccc3c(=O)c12)CC(C)(C)O,2.33 µM,5 µM,3.07 µM,10.3 µM,2.03 µM,4.37 µM,2.68 µM,19.1 µM,11.8 µM,37.5 µM,14 µM,30.7 µM,10.5 µM,27.7 µM,6.21 µM,20.4 µM,15.5 µM,73.7 µM,6.37 µM,30.5 µM
CCC1=C(c2ccc(OC)cc2)CC[C@]2(CCNC2=O)[C@@H]1C,,> 85.9 µM,,60.5 µM,,79.1 µM,,> 100 µM,,> 91.1 µM,,> 100 µM,,> 100 µM,,97.1 µM,,39.7 µM,,> 92.2 µM
CC/C(=C(/c1ccc(/C=C/C(=O)O)cc1)c1ccc2[nH]ncc2c1)c1ccc(F)cc1Cl,10.7 µM,27.7 µM,14.5 µM,39.6 µM,17.4 µM,43.2 µM,15.8 µM,40 µM,0.141 µM,26.9 µM,19.3 µM,47.6 µM,17.5 µM,35.9 µM,16.7 µM,30.8 µM,11.3 µM,37.3 µM,9.08 µM,26.5 µM
CC(C)C/C(=N\NC(=O)c1ccncc1)c1cc(Cl)ccc1O,0.127 µM,31.8 µM,0.178 µM,,0.41 µM,6.62 µM,0.224 µM,17.3 µM,0.584 µM,33.3 µM,0.848 µM,22.5 µM,0.825 µM,38.9 µM,0.852 µM,32.2 µM,0.29 µM,20.8 µM,0.289 µM,> 23.7 µM
N=C(N)c1ccc(OCCCCCOc2ccc(C(=N)N)cc2)cc1,1.68 µM,9 µM and 17.4 µM and 18.3 µM,8.47 µM,28.8 µM and 37.8 µM and 36.4 µM,4.44 µM and 7.51 µM and 15.5 µM,26.3 µM and 23.7 µM and 48.9 µM,10.2 µM and 13 µM and 35.5 µM,> 50 µM and 27 µM and > 100 µM,1.14 µM,13.3 µM and 37.7 µM and > 100 µM,5.24 µM and 6.96 µM and 14.2 µM,> 50 µM and 30.2 µM and 58.8 µM,34 µM,> 50 µM and 78.3 µM and > 100 µM,,> 50 µM and 29.8 µM and 22.3 µM,23.3 µM and 12 µM and 28.3 µM,> 50 µM and 51.8 µM and > 100 µM,27.3 µM,> 100 µM
C=CC[PH+](c1ccccc1)c1ccccc1.C=CC[PH+](c1ccccc1)c1ccccc1.[Pt+2].[S-]c1ncccn1.[S-]c1ncccn1,18.5 µM,48.1 µM,2.18 µM,5.91 µM,11.6 µM,37.2 µM,15.1 µM,43.8 µM,3.71 µM,87.2 µM,16.6 µM,39.9 µM,15.1 µM,34.6 µM,> 100 µM,> 100 µM,3.26 µM,> 100 µM,22.9 µM,> 100 µM
O=C1C2C(C(=O)N1CC[Se][Se]CCN1C(=O)C3C(C1=O)[C@H]1C=C[C@@H]3C1)[C@H]1C=C[C@@H]2C1 (some centres not stated),0.361 µM,1.69 µM,0.167 µM,0.327 µM,0.452 µM,3.14 µM,0.22 µM,0.556 µM,2.09 µM,5.42 µM,0.219 µM,0.495 µM,1.48 µM,5.58 µM,2.94 µM,6.57 µM,0.41 µM,6.68 µM,0.561 µM,3.54 µM
Nc1ccn([C@@H]2S[C@H](CO)[C@@H](O)[C@@H]2F)c(=O)n1,0.138 µM,> 100 µM,0.224 µM,> 100 µM,1.34 µM,> 100 µM,0.74 µM,> 100 µM,1.35 µM,> 100 µM,0.485 µM,> 48.4 µM,0.509 µM,> 100 µM,0.352 µM,> 100 µM,0.0304 µM,> 100 µM,0.0325 µM,> 100 µM
Nc1n[nH]c2ccc([C@@H]3Nc4c(F)cc5[nH]ncc5c4[C@H]4C5CCC(C5)[C@@H]34)cc12 (some centres not stated),0.352 µM,> 31.9 µM,0.539 µM,23.9 µM,7.78 µM,> 79.3 µM,0.391 µM,> 46.2 µM,0.509 µM,> 100 µM,0.629 µM,> 19.9 µM,0.612 µM,> 55.7 µM,0.686 µM,> 58.2 µM,0.439 µM,> 45.5 µM,0.234 µM,5.84 µM
O=C(/C=C/c1cccc(Oc2ccc(Cl)cc2)c1)c1ccccc1,60.1 µM,208 µM,16.9 µM,33 µM,185 µM,344 µM,28.1 µM,101 µM,46.3 µM,235 µM,122 µM,273 µM,26.3 µM,83.6 µM,195 µM,381 µM,30.8 µM,,37.1 µM,232 µM
CCN(CC)CCS(=O)(=O)CCNc1ccnc2cc(Cl)ccc12,2.74 µM,> 25.7 µM,0.982 µM,5.85 µM,5.13 µM,26.1 µM,2.26 µM,16.7 µM,6.23 µM,48.8 µM,4.61 µM,> 100 µM,3.97 µM,> 100 µM,6.58 µM,70.2 µM,1.34 µM,49 µM,1.12 µM,4.73 µM
Cc1cc2c(cc1C)[n+](=O)c(C(=O)/C=C/c1ccccc1[N+](=O)[O-])c(C)n2[O-],,> 100 µM,,> 100 µM,,> 100 µM,,> 100 µM,,> 100 µM,,> 100 µM,,> 100 µM,,> 68.6 µM,,> 100 µM,,> 100 µM
C=CC(C)(O)CCC1C(=C)C(O)CC2C(C)(C)CCCC12C (configuration not stated),,33.5 µM,,38.7 µM,,39 µM,,52.2 µM,,93.6 µM,,29.2 µM,,41.7 µM,,> 100 µM,,31.2 µM,,41.1 µM
Cc1n(Cc2ccc3ccccc3n2)cc[n+]1Cc1ccc2ccccc2c1,0.659 µM,11.2 µM,1.05 µM,3.77 µM,0.506 µM,2.89 µM,1.12 µM,4.76 µM,0.371 µM,7.22 µM,0.965 µM,8.36 µM,1.67 µM,13 µM,1.16 µM,5.03 µM,0.948 µM,10.6 µM,> 100 µM,> 100 µM
COc1cc2c3c(n(CCCN4CCSCC4)c(=O)c2cc1OC)-c1cc2c(cc1C3=O)OCO2,49.7 µM,> 100 µM,> 100 µM,> 100 µM,> 100 µM,> 100 µM,28.8 µM,86.2 µM,> 100 µM,> 100 µM,59.9 µM,> 100 µM,53.6 µM,> 100 µM,88.1 µM,> 100 µM,0.632 µM,13.4 µM,> 100 µM,> 100 µM
COc1ccc(C(=O)/C=C/c2ccc(OCc3ccccc3)c(OC)c2)cc1OC,2.93 µM,14.4 µM,2.84 µM,24.1 µM,6.25 µM,> 100 µM,5.04 µM,> 100 µM,4.33 µM,> 100 µM,3.18 µM,36.6 µM,3.55 µM,> 100 µM,2.97 µM,12.4 µM,3.65 µM,> 100 µM,3.08 µM,> 100 µM
Cc1nn2c(-c3nc4cc(Cl)c(Cl)cc4[nH]3)c(-c3ccc(F)cc3)nc2s1,1.75 µM,> 33.8 µM,2.79 µM,> 100 µM,8.16 µM,> 100 µM,5.42 µM,> 50.6 µM,1.95 µM,14.5 µM,4.01 µM,31.1 µM,8.98 µM,> 100 µM,1.98 µM,4.46 µM,> 100 µM,> 100 µM,2.7 µM,> 30.3 µM
Cc1ccc(NC(=O)c2ccc(NC3=C(Cl)C(=O)N(Cc4ccccc4)C3=O)cc2)cc1Cl,10.3 µM,27 µM,3 µM,14 µM,13.3 µM,35.8 µM,0.49 µM,2.64 µM,2.8 µM,14.5 µM,8.69 µM,23.5 µM,0.774 µM,10.2 µM,22.7 µM,54.6 µM,2.35 µM,15.1 µM,3.78 µM,21.7 µM
CC1=NN(c2nc(N)nc(/C=C\c3ccccc3)n2)C(C)(C)C1,13.1 µM,34.2 µM,1.99 µM,15 µM,5.73 µM,20.1 µM,8.99 µM,24 µM,2.5 µM,15.1 µM,13.7 µM,28.6 µM,20.7 µM,36.5 µM,6.66 µM,36.1 µM,13 µM,40.7 µM,3.75 µM,24.7 µM
